Source: PMC11845477, “Exploring the principles behind antibiotics with limited resistance” (Nature Communications, 2025)

How the values were obtained:
[1] = tested on: P. aeruginosa ATCC BAA-3107 (SEN) and P. aeruginosa LESB58 (MDR); assay: Adaptive laboratory evolution (ALE), relative MIC of evolved lines; format: cell-based, Pseudomonas aeruginosa; settings: for Relative MIC (log10): PA-SEN (Pseudomonas aeruginosa ATCC BAA 3107)
Procedure, shortened: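 Ten parallel populations per antibiotic–ancestor pair were evolved in MHB at 37 °C, starting near 50% growth-inhibiting drug. Every 72 h they were passaged into 0.5–2.5× increasing concentrations, keeping the highest-drug well with OD600 > 0.2.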

[2] = tested on: P. aeruginosa ATCC BAA-3107 (SEN) and P. aeruginosa LESB58 (MDR); assay: Frequency-of-resistance (FoR) assay, relative MIC of mutants; format: cell-based, Pseudomonas aeruginosa; settings: P. aeruginosa ATCC BAA 3107 (PA-SEN)
Description: The susceptibility of antibiotics to resistance development was evaluated in two strains of each bacterial species: a multidrug-resistant strain and an antibiotic-sensitive strain of Escherichia coli, Klebsiella pneumoniae, Acinetobacter baumannii, and Pseudomonas aeruginosa. To explore first-step resistance, we previously used a standard protocol for spontaneous frequency-of-resistance analysis (FoR assay) at multiple concentrations of each antibiotic[10],[28],[31]–[33]. […] For all other combinations, approximately 10^10 bacterial cells were exposed to one of each antibiotic on agar plates for two days at concentrations where the given strain is susceptible. We examined resistance levels by contrasting the minimum inhibitory concentration (MICs) of the mutated strains to the original wild-type bacterial strain (i.e., relative MIC).
To estimate the frequency of spontaneous mutations that confer resistance in a microbial population, we conducted a frequency of resistance (FoR) assay following established protocols[10],[31]–[33]. […] Prior to plating, bacteria were grown overnight in MHB medium at 37 °C and 250 RPM, then centrifuged and washed in MHB. All experiments were performed in triplicate, and plates were incubated at 37 °C for 48 hours. Total colony-forming units (CFUs) were determined by plating appropriate dilutions onto antibiotic-free MHB agar. Resistance frequencies were calculated by dividing the number of resistant colonies by the initial viable cell count. From the plates with the highest antibiotic concentration, ten colonies were selected for MIC determination and whole-genome sequencing.
A robotic liquid handling system was used to automatically prepare a 11 to 16-step serial dilution in 384-well microtiter plates (Greiner). A final concentration of 5 × 10^5 bacterial cells per mL were inoculated into each well containing 60 µL MHB medium. Bacterial cultures were incubated at 37 °C with continuous shaking (Infors shaker, 900 rpm with 3 mm throw) for 18 hours (2 replicates from each). Cell growth was monitored by measuring the optical density (OD600 values, using Biotek Synergy microplate reader). MIC was defined as the antibiotic concentration of complete growth inhibition (i.e., OD600 < 0.05). Relative MIC was calculated as follows:1 relativeMIC=MICevolved/MICancestor […]
Supplementary Figure 3. Resistance levels following the frequency of resistance assay across bacterial strains. The level of resistance was measured as the fold change in relative MIC between evolved and ancestral strains. Data are grouped by bacterial strain (A. baumannii (AB), E. coli (EC), K. pneumoniae (KP), and P. aeruginosa (PA)) and categorized as either multidrug-resistant (MDR) or sensitive (SEN). Each data point represents a laboratory evolved line, and boxplots show the median, first and third quartiles, with whiskers indicating the 5th and 95th percentiles. […]
analysis was performed using two-sided Dunn’s post-hoc test with Benjamini-Hochberg correction for multiple comparisons (**/ * indicates p < 0.01/ 0.05). For detailed information on antibiotic and bacterial species, see Supplementary Table 1. For mode of action groups, refer to Table 1. Source data are provided as a Source Data file.

[3] = evolved line 2 adapted to the named antibiotic
[4] = evolved line 10 adapted to the named antibiotic
[5] = PA-SEN, Pseudomonas aeruginosa ATCC BAA 3107, evolved line 1
[6] = PA-SEN, Pseudomonas aeruginosa ATCC BAA 3107, evolved line 1 versus ancestor
[7] = PA-SEN, Pseudomonas aeruginosa ATCC BAA 3107, evolved line 2
[8] = PA-SEN, Pseudomonas aeruginosa ATCC BAA 3107, evolved line 2 versus ancestor
[9] = PA-SEN, Pseudomonas aeruginosa ATCC BAA 3107, evolved line 4
[10] = PA-SEN, Pseudomonas aeruginosa ATCC BAA 3107, evolved line 4 versus ancestor
[11] = PA-SEN, Pseudomonas aeruginosa ATCC BAA 3107, evolved line 6
[12] = PA-SEN, Pseudomonas aeruginosa ATCC BAA 3107, evolved line 6 versus ancestor
[13] = PA-SEN, Pseudomonas aeruginosa ATCC BAA 3107, evolved line 8
[14] = PA-SEN, Pseudomonas aeruginosa ATCC BAA 3107, evolved line 8 versus ancestor
[15] = PA-SEN, Pseudomonas aeruginosa ATCC BAA 3107, evolved line 9
[16] = PA-SEN, Pseudomonas aeruginosa ATCC BAA 3107, evolved line 9 versus ancestor
[17] = PA-SEN, Pseudomonas aeruginosa ATCC BAA 3107, evolved line 10
[18] = PA-SEN, Pseudomonas aeruginosa ATCC BAA 3107, evolved line 10 versus ancestor
[19] = evolved line 1, evolved vs ancestor
[20] = evolved line 2, evolved vs ancestor
[21] = evolved line 3, evolved vs ancestor

## CN(C)[C@@H]1C(O)=C(C(N)=O)C(=O)[C@@]2(O)C(O)=C3C(=O)c4c(O)c(NC(=O)CN5CCCC5)cc(F)c4C[C@H]3C[C@@H]12 [Eravacycline]
[1]; [3]
  Relative MIC (log10): 1.505
[1]; evolved line 4 adapted to the named antibiotic
  Relative MIC (log10): 1.505
[1]; evolved line 5 adapted to the named antibiotic
  Relative MIC (log10): 1.806
[1]; evolved line 7 adapted to the named antibiotic
  Relative MIC (log10): 1.204
[1]; [4]
  Relative MIC (log10): 1.505
[1]; [5]
  MIC of evolved line: 128 µg/mL
[1]; [6]
  Relative MIC: 32
[1]; [7]
  MIC of evolved line: 128 µg/mL
[1]; [8]
  Relative MIC: 32
[1]; PA-SEN, Pseudomonas aeruginosa ATCC BAA 3107, evolved line 3
  MIC of evolved line: 256 µg/mL
[1]; PA-SEN, Pseudomonas aeruginosa ATCC BAA 3107, evolved line 3 versus ancestor
  Relative MIC: 64
[1]; [9]
  MIC of evolved line: 128 µg/mL
[1]; [10]
  Relative MIC: 32
[1]; PA-SEN, Pseudomonas aeruginosa ATCC BAA 3107, evolved line 5
  MIC of evolved line: 256 µg/mL
[1]; PA-SEN, Pseudomonas aeruginosa ATCC BAA 3107, evolved line 5 versus ancestor
  Relative MIC: 64
[1]; [11]
  MIC of evolved line: 128 µg/mL
[1]; [12]
  Relative MIC: 32
[1]; PA-SEN, Pseudomonas aeruginosa ATCC BAA 3107, evolved line 7
  MIC of evolved line: 64 µg/mL
[1]; PA-SEN, Pseudomonas aeruginosa ATCC BAA 3107, evolved line 7 versus ancestor
  Relative MIC: 16
[1]; [13]
  MIC of evolved line: 64 µg/mL
[1]; [14]
  Relative MIC: 16
[1]; [15]
  MIC of evolved line: 64 µg/mL
[1]; [16]
  Relative MIC: 16
[1]; [17]
  MIC of evolved line: 128 µg/mL
[1]; [18]
  Relative MIC: 32
[1]; Pseudomonas aeruginosa ATCC BAA 3107 (PA-SEN), evolved line 1
  Relative MIC: 32
[1]; Pseudomonas aeruginosa ATCC BAA 3107 (PA-SEN), evolved line 2
  Relative MIC: 32
[1]; Pseudomonas aeruginosa ATCC BAA 3107 (PA-SEN), evolved line 3
  Relative MIC: 64
[1]; Pseudomonas aeruginosa ATCC BAA 3107 (PA-SEN), evolved line 4
  Relative MIC: 32
[1]; Pseudomonas aeruginosa ATCC BAA 3107 (PA-SEN), evolved line 5
  Relative MIC: 64
[1]; Pseudomonas aeruginosa ATCC BAA 3107 (PA-SEN), evolved line 6
  Relative MIC: 32
[1]; Pseudomonas aeruginosa ATCC BAA 3107 (PA-SEN), evolved line 7
  Relative MIC: 16
[1]; Pseudomonas aeruginosa ATCC BAA 3107 (PA-SEN), evolved line 8
  Relative MIC: 16
[1]; Pseudomonas aeruginosa ATCC BAA 3107 (PA-SEN), evolved line 9
  Relative MIC: 16
[1]; Pseudomonas aeruginosa ATCC BAA 3107 (PA-SEN), evolved line 10
  Relative MIC: 32
[2]; evolved line 1
  MIC of evolved line: 32 µg/mL
[2]; [19]
  Relative MIC: 8
[2]; evolved line 2
  MIC of evolved line: 32 µg/mL
[2]; [20]
  Relative MIC: 8
[2]; evolved line 3
  MIC of evolved line: 32 µg/mL
[2]; [21]
  Relative MIC: 8

## CNC(C)C1CCC(N)C(OC2C(N)CC(N)C(OC3OCC(C)(O)C(NC)C3O)C2O)O1 (stereo not shown) [Gentamicin]
[1]; evolved line 1 adapted to the named antibiotic
  Relative MIC (log10): 2.107
[1]; [3]
  Relative MIC (log10): 1.806
[1]; evolved line 6 adapted to the named antibiotic
  Relative MIC (log10): 1.806
[1]; evolved line 9 adapted to the named antibiotic
  Relative MIC (log10): 2.107
[1]; [4]
  Relative MIC (log10): 2.408
[1]; [5]
  MIC of evolved line: 128 µg/mL
  Relative MIC: 128
[1]; [6]
  Relative MIC: 128
[1]; [7]
  MIC of evolved line: 64 µg/mL
  Relative MIC: 64
[1]; [8]
  Relative MIC: 64
[1]; [9]
  MIC of evolved line: 128 µg/mL
  Relative MIC: 128
[1]; [10]
  Relative MIC: 128
[1]; [11]
  MIC of evolved line: 64 µg/mL
  Relative MIC: 64
[1]; [12]
  Relative MIC: 64
[1]; [13]
  MIC of evolved line: 256 µg/mL
  Relative MIC: 256
[1]; [14]
  Relative MIC: 256
[1]; [15]
  MIC of evolved line: 128 µg/mL
  Relative MIC: 128
[1]; [16]
  Relative MIC: 128
[1]; [17]
  MIC of evolved line: 256 µg/mL
  Relative MIC: 256
[1]; [18]
  Relative MIC: 256
[2]; evolved line 1
  MIC of evolved line: 8 µg/mL
[2]; [19]
  Relative MIC: 8
[2]; evolved line 2
  MIC of evolved line: 8 µg/mL
[2]; [20]
  Relative MIC: 8
[2]; evolved line 3
  MIC of evolved line: 8 µg/mL
[2]; [21]
  Relative MIC: 8
